Patent US20250042876A1, “HERBICIDAL PYRAZOLE PYRIMIDINE COMPOUNDS” (SYNGENTA CROP PROTECTION AG, priority 2021, published 2025)

Tests used:
Assay type in all cases: in vivo
Details in all cases: 250 g/ha, evaluated after 13 days
[1] = tested on: Amaranthus palmeri (AMAPA); assay: Post-emergence herbicidal test, glasshouse
Experimental: (§1) Seeds of a variety of test species are sown in standard soil in pots Amaranthus palmeri (AMAPA), Amaranthus retoflexus (AMARE), Setaria faberi (SETFA), Echinochloa crus-galli (ECHCG), Ipomoea hederacea (IPOHE)). After cultivation for one day (pre-emergence) or after 8 days cultivation (post-emergence) under controlled conditions in a glasshouse (at 24/16° C., day/night; 14 hours light; 65% humidity), the plants are sprayed with an aqueous spray solution derived from the formulation of the technical active ingredient in acetone/water (50:50) solution containing 0.5% Tween 20 (polyoxyethelyene sorbitan monolaurate, CAS RN 9005-64-5). Compounds are applied at 250 g/ha unless otherwise stated. The test plants are then grown in a glasshouse under controlled conditions in a glasshouse (at 24/16° C., day/night; 14 hours light; 65% humidity) and watered twice daily. After 13 days for pre and post-emergence, the test is evaluated for the percentage damage caused to the plant. The biological activities are shown in the following table on a five-point scale (5=81-100%; 4=61-80%; 3=41-60%; 2=21-40%; 1=0-20%).

[2] = tested on: Amaranthus retoflexus (AMARE); assay: Post-emergence herbicidal test, glasshouse
Experimental: as §1

[3] = tested on: Echinochloa crus-galli (ECHCG); assay: Post-emergence herbicidal test, glasshouse
Experimental: as §1

[4] = tested on: Ipomoea hederacea (IPOHE); assay: Post-emergence herbicidal test, glasshouse
Experimental: as §1

[5] = tested on: Amaranthus palmeri (AMAPA); assay: Pre-emergence herbicidal test, glasshouse
Experimental: as §1

[6] = tested on: Amaranthus retoflexus (AMARE); assay: Pre-emergence herbicidal test, glasshouse
Experimental: as §1

[7] = tested on: Echinochloa crus-galli (ECHCG); assay: Pre-emergence herbicidal test, glasshouse
Experimental: as §1

[8] = tested on: Ipomoea hederacea (IPOHE); assay: Pre-emergence herbicidal test, glasshouse
Experimental: as §1

Structure (SMILES) | AMAPA percentage damage caused to the plant (five-point scale) [1] | AMARE percentage damage caused to the plant (five-point scale) [2] | ECHCG percentage damage caused to the plant (five-point scale) [3] | IPOHE percentage damage caused to the plant (five-point scale) [4] | AMAPA percentage damage caused to the plant (five-point scale) [5] | AMARE percentage damage caused to the plant (five-point scale) [6] | ECHCG percentage damage caused to the plant (five-point scale) [7] | IPOHE percentage damage caused to the plant (five-point scale) [8]
FC(F)(F)c1cc(Cc2ncc(Cl)cn2)n(-c2ccc(Cl)nc2)n1 [Compound 1.009] | 5 (5=81-100%) | 5 (5=81-100%) | 5 (5=81-100%) | 4 (4=61-80%) | 5 (5=81-100%) | 5 (5=81-100%) | 5 (5=81-100%) | 5 (5=81-100%)
N#Cc1ccc(-n2nc(C#N)cc2Cc2ncc(Cl)cn2)cn1 [Compound 1.019] | 5 (5=81-100%) | 5 (5=81-100%) | 4 (4=61-80%) | 3 (3=41-60%) | 5 (5=81-100%) | 5 (5=81-100%) | 4 (4=61-80%) | 5 (5=81-100%)
N#Cc1cc(Cc2ncc(Cl)cn2)n(-c2ccc(Cl)nc2)n1 [Compound 1.020] | 5 (5=81-100%) | 5 (5=81-100%) | 5 (5=81-100%) | 4 (4=61-80%) | 5 (5=81-100%) | 5 (5=81-100%) | 5 (5=81-100%) | 5 (5=81-100%)
Clc1cnc(Cc2cc(I)nn2-c2ccc(Cl)nc2)nc1 [Compound 1.021] | 5 (5=81-100%) | 5 (5=81-100%) | 5 (5=81-100%) | 4 (4=61-80%) | 5 (5=81-100%) | 5 (5=81-100%) | 5 (5=81-100%) | 5 (5=81-100%)
FC(F)(Cl)c1cc(Cc2ncc(Cl)cn2)n(-c2ccc(Cl)nc2)n1 [Compound 1.022] | 5 (5=81-100%) | 5 (5=81-100%) | 5 (5=81-100%) | 3 (3=41-60%) | 5 (5=81-100%) | 5 (5=81-100%) | 5 (5=81-100%) | 5 (5=81-100%)
FC(F)(Cl)c1cc(Cc2ncc(Cl)cn2)n(-c2cnc(Cl)c(Cl)c2)n1 [Compound 1.023] | 5 (5=81-100%) | 5 (5=81-100%) | 4 (4=61-80%) | 3 (3=41-60%) | 5 (5=81-100%) | 5 (5=81-100%) | 5 (5=81-100%) | 5 (5=81-100%)
Fc1ccc(-n2nc(C(F)(F)Cl)cc2Cc2ncc(Cl)cn2)cc1F [Compound 1.024] | 5 (5=81-100%) | 5 (5=81-100%) | 5 (5=81-100%) | 4 (4=61-80%) | 5 (5=81-100%) | 5 (5=81-100%) | 5 (5=81-100%) | 5 (5=81-100%)
CS(=O)(=O)c1ccc(-n2nc(C(F)F)cc2Cc2ncc(Cl)cn2)cc1 [Compound 1.027] | 5 (5=81-100%) | 5 (5=81-100%) | 5 (5=81-100%) | 5 (5=81-100%) | 5 (5=81-100%) | 5 (5=81-100%) | 5 (5=81-100%) | 5 (5=81-100%)
N#Cc1ccc(-n2nc(C(F)F)cc2Cc2ncc(Cl)cn2)cc1 [Compound 1.028] | 5 (5=81-100%) | 5 (5=81-100%) | 5 (5=81-100%) | 4 (4=61-80%) | 5 (5=81-100%) | 5 (5=81-100%) | 5 (5=81-100%) | 5 (5=81-100%)
FC(F)c1cc(Cc2ncc(Cl)cn2)n(-c2ccc(Cl)cc2)n1 [Compound 1.029] | 5 (5=81-100%) | 5 (5=81-100%) | 4 (4=61-80%) | 4 (4=61-80%) | 5 (5=81-100%) | 5 (5=81-100%) | 5 (5=81-100%) | 5 (5=81-100%)
FC(F)c1cc(Cc2ncc(Cl)cn2)n(-c2cnc(Cl)c(Cl)c2)n1 [Compound 1.030] | 5 (5=81-100%) | 5 (5=81-100%) | 4 (4=61-80%) | 4 (4=61-80%) | 5 (5=81-100%) | 5 (5=81-100%) | 5 (5=81-100%) | 4 (4=61-80%)
FC(F)c1cc(Cc2ncc(Cl)cn2)n(-c2cccc(Cl)c2)n1 [Compound 1.031] | 4 (4=61-80%) | 5 (5=81-100%) | 4 (4=61-80%) | 4 (4=61-80%) | 5 (5=81-100%) | 5 (5=81-100%) | 5 (5=81-100%) | 5 (5=81-100%)
Fc1ccc(-n2nc(C(F)F)cc2Cc2ncc(Cl)cn2)cc1F [Compound 1.032, 5-chloro-2-[[5-(difluoromethyl)-2-(3,4-difluorophenyl)pyrazol-3-yl]methyl]pyrimidine] | 5 (5=81-100%) | 5 (5=81-100%) | 4 (4=61-80%) | 4 (4=61-80%) | 5 (5=81-100%) | 5 (5=81-100%) | 5 (5=81-100%) | 5 (5=81-100%)
